Columns and labels:
lymphocyte = assay: Single and multiple ascending dose studies in healthy subjects; type: in vivo
[1] = test system: collagen induced arthritis (CIA); settings: cited from earlier work
[2] = test system: experimental autoimmune encephalomyelitis (EAE); settings: up to day 25, when dosing was discontinued; cited from earlier work
chronic plaque psoriasis = settings: cited from earlier work

In the case of `O=C(O)C[C@H]1CCc2c1[nH]c1ccc(OCc3ccc(C4CCCC4)c(C(F)(F)F)c3)cc21` [Compound 1, (R)-2-(7-(4-cyclopentyl-3-(trifluoromethyl)benzyloxy)-1,2,3,4-tetrahydrocyclopenta[b]indol-3-yl)acetic acid], the “lymphocyte lowering in healthy subjects” value (lymphocyte) is listed as “demonstrated the lymphocyte lowering capabilities”, the “ankle diameters in CIA” value ([1]; prophylactic daily oral dose, day 17, similar to fingolimod or methotrexate) is listed as “significant reduction in ankle diameters” and the “histological parameters in knees and ankles of CIA rats” value ([1]; rat, in vivo) is listed as “Improvement in histological parameters”. For the same molecule, the “EAE disease onset and severity, prophylactic administration” value [2] was “prevented the onset and severity of disease relative to vehicle”.
In the case of `CCC/N=C1\S/C(=C\c2ccc(OC[C@H](O)CO)c(Cl)c2)C(=O)N1c1ccccc1C` [ponesimod], the “severity of chronic plaque psoriasis” value (chronic plaque psoriasis; chronic oral administration, phase 2) is given as “reduce the severity of chronic plaque psoriasis” and the associated adverse events (chronic plaque psoriasis; phase 2 psoriasis study) is given as “dyspnea, elevated liver enzymes, bradycardia, headache and dizziness”.

— patent US12097182B2, “Compounds and methods for treatment of inflammatory bowel disease with extra-intestinal manifestations” (Arena Pharmaceuticals, Inc., priority 2017, dated 2024)
